Literature values, collected in patent publication US8084444B2, “Treatment of dermatitis with dehydroepiandrosterone-glucocorticoid combinations” (RxDino, LLC, priority 2004, dated 2011).

Conditions: equivalent in glucocorticoid potency

Compound | Approximate Glucocorticoid Dose Equivalent [mg]
C[C@]12C=CC(=O)C=C1CC[C@H]1[C@@H]3C[C@@H](O)[C@](O)(C(=O)CO)[C@@]3(C)C[C@H](O)[C@@]12F [Triamcinolone] | ~0.8
C[C@]12CCC(=O)C=C1CC[C@@H]1[C@@H]2[C@@H](O)C[C@@]2(C)[C@H]1CC[C@]2(O)C(=O)CO [Hydrocortisone] | ~20
C[C@]12C=CC(=O)C=C1CC[C@@H]1[C@@H]2[C@@H](O)C[C@@]2(C)[C@H]1CC[C@]2(O)C(=O)CO [Prednisolone] | ~5
C[C@]12CCC(=O)C=C1CC[C@@H]1[C@@H]2C(=O)C[C@@]2(C)[C@H]1CC[C@]2(O)C(=O)CO [Cortisone] | ~25
